In ChEMBL document CHEMBL3627675, “Protective effects of the bioactive natural product N-trans-Caffeoyldopamine on hepatotoxicity induced by isoniazid and rifampicin” (2015):
Active and inactive are the calls of the source. The rule behind the calls is not given here.

Assays:
Rattus norvegicus [1] = assay: Protective activity against isoniazid and rifampicin-induced hepatotoxicity in Wistar rat assessed as increase of SOD activity at 2.5 mg/kg, po (reference value: 31.4 +/- 8.3 U/mg); format: functional
Rattus norvegicus [2] = assay: Protective activity against isoniazid and rifampicin-induced hepatotoxicity in Wistar rat assessed as increase of GSH activity at 2.5 mg/kg, po (reference value: 29.4 +/- 11.4 uM/gram); format: functional
Rattus norvegicus [3] = species: Rattus norvegicus; assay: Protective activity against isoniazid and rifampicin-induced hepatotoxicity in Wistar rat by haematoxylin and eosin staining; format: functional, organism-based
Rattus norvegicus [4] = assay: Protective activity against isoniazid and rifampicin-induced hepatotoxicity in Wistar rat assessed as reduction of serum AST level at 2.5 mg/kg, po (reference value: 168.5 +/- 14.7 U); format: functional
Rattus norvegicus [5] = assay: Protective activity against isoniazid and rifampicin-induced hepatotoxicity in Wistar rat assessed as reduction of MDA level at 2.5 mg/kg, po (reference value: 30.5 +/- 7.8 nM/mg); format: functional
Rattus norvegicus [6] = assay: Protective activity against isoniazid and rifampicin-induced hepatotoxicity in Wistar rat assessed as reduction of serum ALT level at 2.5 mg/kg, po (reference value: 143.7 +/- 12.5 U); format: functional
Rattus norvegicus [7] = species: Rattus norvegicus; assay: Protective activity against isoniazid and rifampicin-induced hepatotoxicity in Wistar rat assessed as decrease of CYP2E1 mRNA expression in liver; format: functional, organism-based

| SMILES | Activity (Rattus norvegicus [1]) [U/mg] | Activity (Rattus norvegicus [2]) [µmol/g] | Activity (Rattus norvegicus [3]) | Activity (Rattus norvegicus [4]) [U] | Activity (Rattus norvegicus [5]) [nM/mg] | Activity (Rattus norvegicus [6]) [U] | Activity (Rattus norvegicus [7]) |
| --- | --- | --- | --- | --- | --- | --- | --- |
| O=C(/C=C/c1ccc(O)c(O)c1)NCCc1ccc(O)c(O)c1 | 57 | 49 | Active | 86.4 | 14.8 | 80.6 | Active |
| O=C(O)/C=C/c1ccc(O)c(O)c1 [CAFFEIC ACID] | 48 | 42.9 | Active | 115.6 | 23.5 | 102.9 | Active |
